Laboratory results published in patent US20260217701A1, “SELECTIVE BET INHIBITORS AND USES THEREOF” (Tay Therapeutics Limited, priority 2022, published 2026).
Values joined by “and” are separate entries in the source; they are usually repeats but may differ in a detail not shown here. Equal entries are not always repeated. Where two headings read alike, the source gives them in different places.

Test: Dog PK study #1 (Compound A IV and PO, propylene glycol formulation)
Type: in vivo, beagle dogs
Settings: for Vd: read-out: Vss—obs
From the text: The purpose of this study was to examine the pharmacokinetics of Compound A in beagle dogs. Four beagle dog studies were undertaken, one where Compound A was formulated in a propylene glycol based formulation (Dog PK study #1-PO and IV), a second where Compound A was formulated in a HPBCD based formulation (Dog PK study #2-IV), a third where Compound A was formulated in a 5% DMSO/15% PEG-400/80% (10% VE-TPGS) formulation (Dog PK study #3-PO), and a fourth where Compound A was formulated in […]/15% PEG-400/80% (10% VE-TPGS) formulation (Dog PK study #4-PO).
For Dog PK study #1, two solutions of different concentrations of Compound A were prepared in 20% propylene glycol/20% Vitamin E TPGS/60% water as outlined in Table 2A in Experimental Method A. The solutions of Compound A in 20% propylene glycol/20% Vitamin E TPGS/60% water were prepared freshly prior to use. The Compound A solutions administered were then administered to animals either intravenously (IV) or orally (PO) and animals were then monitored over a 24 h period (Table 3B). Body weight was recorded prior to dosing, and detailed clinical observations were made prior to dosing and throughout the study, as needed.
Blood samples (~0.3 mL) were collected according to a schedule (shown below) by venipuncture of peripheral veins except for the dosing vein, and EDTA-K2 was used as anticoagulant. Within 30 minutes of collection, the samples were centrifuged at approximately 2000 times g-force for 10 minutes at 4° C. to obtain blood plasma. The plasma samples were immediately divided into two aliquots (~75 μL each), transferred to a cryogenic vial, and stored in a freezer at −75±15° C. prior to analysis.
Blood samples for IV were collected at 0.083, 0.25, 0.5, 1, 2, 4, 8, 24 h and blood samples for PO were collected at 0.25, 0.5, 1, 2, 4, 8, and 24 h following the initial dosing (0 h).
The concentration of Compound A in the blood plasma was determined through liquid chromatography-mass spectrometry (LC-MS). The experiments were conducted on a Shimadzu HPLC(DGU-20A5R; LC-30AD; SIL-30AC; Rack Changer II; CTO-30A; and CBM-20A) and AB API 5500+LC/MS/MS instrument with an Agilent Poroshell EC-C18 4 μm (50×2.1 mm) column. A gradient of 95% water (0.1% formic acid)/95% acetonitrile (0.1% formic acid) was used as the mobile phase. The sample injection volume was 10 μL, and the flow rate was 0.6 mL/min. The gathered data were used for pharmacokinetic calculations using T1/2, C0, AUClast, AUCinf, MRTinf, Cl, Vss, and Number of Points for Regression as parameters.
The desired serial concentrations of working solutions were achieved by diluting stock solution of analyte with 50% acetonitrile in water solution. 5 μL of working solutions (5, 10, 20, 50, 100, 500, 1000, 5000, 10000 ng/mL) were added to 50 μL of the blank Beagle Dogs plasma to achieve calibration standards of 0.5~1000 ng/ml (0.5, 1, 2, 5, 10, 50, 100, 500, 1000 ng/ml) in a total volume of 55 μL. Five quality control samples at 1 ng/ml, 2 ng/ml, 5 ng/ml, 50 ng/mL and 800 ng/ml for plasma were prepared independently of those used for the calibration curves. These QC samples were prepared on the day of analysis in the same way as calibration standards.
55 μL standards, 55 μL QC samples and 55 μL unknown samples (50 μl plasma with 5 μL blank solution were added to 200 μL of acetonitrile containing IS mixture (verapamil) for precipitating protein respectively. Then the samples were vortexed for 30 s. After centrifugation at 4° C., 3900 rpm for 15 min, the supernatant was diluted 3 times with water. 10 μL of diluted supernatant was injected into the LC/MS/MS system for quantitative analysis.

[1] = IV 1 mg/kg, individual animals, 1 mg/kg
[2] = beagle, dog, plasma, iv, 1 mg/kg, IV 1 mg/kg, individual animals, read-out: Plasma concentration
[3] = beagle, dog, plasma, iv, 1 mg/kg, IV 1 mg/kg, mean, read-out: Average plasma concentration
[4] = beagle, dog, plasma, iv, 1 mg/kg, IV 1 mg/kg, mean
[5] = beagle, dog, plasma, iv, 1 mg/kg, IV 1 mg/kg, individual animals
[6] = beagle, dog, plasma, po, 5 mg/kg, oral 5 mg/kg, individual animals, read-out: Plasma concentration
[7] = beagle, dog, plasma, po, 5 mg/kg, oral 5 mg/kg, mean, read-out: Average plasma concentration
[8] = beagle, dog, plasma, po, 5 mg/kg, oral 5 mg/kg, mean
[9] = beagle, dog, plasma, po, 5 mg/kg, oral 5 mg/kg, individual animals
[10] = oral 5 mg/kg, individual animals, 5 mg/kg

Cn1cc(-c2ccccc2)c(-c2cn(C)c(=O)c3[nH]c(-c4cnn(C(F)(F)F)c4)cc23)cc1=O [Compound A, 6-methyl-4-(1-methyl-2-oxo-5-phenyl-1,2-dihydropyridin-4-yl)-2-(1-(trifluoromethyl)-1H-pyrazol-4-yl)-1,6-dihydro-7H-pyrrolo[2,3-c]pyridin-7-one]
AUClast [1]: 4746 ng·h/mL and 2876 ng·h/mL and 7862 ng·h/mL | AUClast/D [1]: 4746 (ng · h/mL)/(mg/kg) and 2876 (ng · h/mL)/(mg/kg) and 7862 (ng · h/mL)/(mg/kg) | AUClnf [1]: 4892 ng·h/mL and 2944 ng·h/mL and 8955 ng·h/mL | AUC—%Extrap—obs [1]: 2.98% and 2.32% and 12.2% | C0 [1]: 1618 ng/mL and 1767 ng/mL | CI_obs [1]: 3.41 mL/min/kg and 5.66 mL/min/kg and 1.86 mL/min/kg | MRTlnf—obs [1]: 5.21 h and 4.15 h and 10.0 h | T1/2 [1]: 5.23 h and 8.60 h | Vss—obs [1]: 1.41 L/kg and 1.12 L/kg | AUClast/D (IV 1 mg/kg, mean): 5162 (ng · h/mL)/(mg/kg) | AUC—%Extrap—obs (IV 1 mg/kg, mean): 5.8% | CI_obs (IV 1 mg/kg, mean): 3.64 mL/min/kg | MRTlnf—obs (IV 1 mg/kg, mean): 6.5 h | time over which plasma concentration increased after oral administration (PO, all animals): 2 h | concentration at 0.083 h [2]: 1480 ng/mL | concentration at 0.083 h [3]: 1480 ng/mL | concentration at 0.25 h [2]: 1130 ng/mL | concentration at 0.25 h [3]: 1130 ng/mL | concentration at 0.5 h [2]: 971 ng/mL | concentration at 0.5 h [3]: 912 ng/mL | concentration at 1 h [2]: 802 ng/mL | concentration at 1 h [3]: 764 ng/mL | concentration at 2 h [2]: 594 ng/mL | concentration at 2 h [3]: 586 ng/mL | concentration at 4 h [4]: 293 ng/mL | concentration at 8 h [4]: 169 ng/mL | concentration at 24 h [4]: 38.7 ng/mL | half-life [5]: 316 min | C0 (beagle, dog, plasma, iv, 1 mg/kg, IV 1 mg/kg, individual animals, read-out: C0): 1690 ng/mL | Vd [5]: 1.06 L/kg | AUC [4]: 5600 ng·h/mL | AUC(0-t) [4]: 5160 ng·h/mL | half-life [4]: 382 min | C0 (beagle, dog, plasma, iv, 1 mg/kg, IV 1 mg/kg, mean, read-out: C0): 1690 ng/mL | Vd [4]: 1.2 L/kg | concentration at 0.25 h [6]: 25.1 ng/mL | concentration at 0.25 h [7]: 26.7 ng/mL | concentration at 0.5 h [6]: 147 ng/mL | concentration at 0.5 h [7]: 127 ng/mL | concentration at 1 h [7]: 293 ng/mL | concentration at 2 h [7]: 435 ng/mL | concentration at 4 h [8]: 369 ng/mL | concentration at 8 h [8]: 123 ng/mL | concentration at 24 h [8]: 29.9 ng/mL | AUC [9]: 4520 ng·h/mL | half-life [9]: 272 min | AUC [8]: 4270 ng·h/mL | AUC(0-t) [8]: 3500 ng·h/mL | half-life [8]: 244 min | Cmax (beagle, dog, plasma, po, 5 mg/kg, oral 5 mg/kg, mean, read-out: Cmax): 435 ng/mL | Tmax (beagle, dog, plasma, oral 5 mg/kg, individual animals): 2 h | AUClast [10]: 4398 ng·h/mL and 2122 ng·h/mL and 3976 ng·h/mL | AUClast/D [10]: 880 (ng · h/mL)/(mg/kg) and 424 (ng · h/mL)/(mg/kg) and 795 (ng · h/mL)/(mg/kg) | AUClnf [10]: 4019 ng·h/mL | AUC—%Extrap—obs [10]: 2.78% and 1.09% | Cmax [10]: 498 ng/mL and 228 ng/mL and 580 ng/mL | F [10]: 16.2% and 8.22% and 14.4% | MRTlnf—obs [10]: 6.47 h and 5.27 h | T1/2 [10]: 3.61 h | AUClast/D (oral 5 mg/kg, mean): 700 (ng · h/mL)/(mg/kg) | AUC—%Extrap—obs (oral 5 mg/kg, mean): 1.93% | F (oral 5 mg/kg, mean): 12.9% | MRTlnf—obs (oral 5 mg/kg, mean): 5.87 h | availability and tolerability (overall statement on the four dog PK studies): IV and orally available and well tolerated
